US9975896B2, “Inhibitors of transcription factors and uses thereof” (Dana-Farber Cancer Institute, Inc., priority 2013, dated 2018)
pEC50: −log10 of the molar value. Where two headings read alike, the source gives them in different places.

Columns and labels:
BRD3(2) = target: T1, BRD3(2) (Homo sapiens, UniProt Q15059); assay: BromoScan selectivity panel (Kd); assay type: binding
T1 construct: the bromodomain-containing protein is BRD3(2)

TAF1(2) = target: T2, TAF1(2) (Homo sapiens, UniProt P21675); assay: BromoScan selectivity panel (Kd); assay type: binding
T2 construct: TAF1(2)
T2 sequence (P21675 1519-1628 limits assumed): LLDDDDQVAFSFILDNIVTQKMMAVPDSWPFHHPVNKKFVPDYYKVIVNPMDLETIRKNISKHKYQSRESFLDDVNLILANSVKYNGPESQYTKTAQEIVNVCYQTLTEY

BRPF3 = target: T3, BRPF3 (Homo sapiens, UniProt Q9ULD4); assay: BromoScan selectivity panel (Kd); assay type: binding
T3 sequence (Q9ULD4 589-693 limits assumed): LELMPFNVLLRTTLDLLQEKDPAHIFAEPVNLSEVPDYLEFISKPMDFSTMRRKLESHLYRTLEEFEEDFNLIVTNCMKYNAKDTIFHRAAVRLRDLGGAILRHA

BAZ2B = target: T4, BAZ2B (Homo sapiens, UniProt Q9UIF8); assay: BromoScan selectivity panel (Kd); assay type: binding
T4 sequence (Q9UIF8 2054-2168 limits assumed): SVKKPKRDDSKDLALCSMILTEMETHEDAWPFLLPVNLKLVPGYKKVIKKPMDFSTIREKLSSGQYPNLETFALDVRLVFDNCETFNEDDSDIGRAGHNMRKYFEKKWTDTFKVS

TRIM24(PHD Bromo.) = target: T5, TRIM24(PHD Bromo.) (Homo sapiens, UniProt O15164); assay: BromoScan selectivity panel (Kd); assay type: binding
T5 construct: TRIM24(PHD Bromo.)
T5 sequence (O15164 824-1006 limits assumed): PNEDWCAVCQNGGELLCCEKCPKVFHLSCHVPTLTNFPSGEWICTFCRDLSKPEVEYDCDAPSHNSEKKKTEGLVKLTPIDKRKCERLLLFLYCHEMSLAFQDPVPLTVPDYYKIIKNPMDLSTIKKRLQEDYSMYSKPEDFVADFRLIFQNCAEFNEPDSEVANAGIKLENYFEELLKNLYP

BRD2(1) = target: T6, BRD2(1) (Homo sapiens, UniProt P25440); assay: BromoScan selectivity panel (Kd); assay type: binding
T6 construct: the bromodomain-containing protein is BRD2(1)

WDR9(2) = target: T7, WDR9(2) (Homo sapiens, UniProt Q9NSI6); assay: BromoScan selectivity panel (Kd); assay type: binding
T7 construct: WDR9(2)

[1] = test system: BRD4-dependent Nut-Midline Carcinoma line 797; assay: Cell viability (ATPlite) in BRD4 dependant cell line 797
BRD3(1) = target: T8, BRD3(1) (Homo sapiens, UniProt Q15059); assay: BromoScan selectivity panel (Kd); assay type: binding
T8 construct: the bromodomain-containing protein is BRD3(1)

BRD4 = BRD4 (Homo sapiens, UniProt O60885); assay: In vitro AlphaScreen protein binding assay (competition with biotinylated JQ1); conditions: for IC50: AlphaScreen
Method: Assays were performed with minor modifications from the manufacturer's protocol (PerkinElmer, USA). All reagents were diluted in 50 mM HEPES, 150 mM NaCl, 0.1% w/v BSA, and 0.01% w/v Tween® 20 at pH 7.5 and allowed to equilibrate to room temperature prior to addition to plates. After addition of Alpha beads to master solutions, all subsequent steps were performed in low light conditions. […] After a 1000-rpm spin-down for 1 minute, 100 nL of the solutions of compounds of the invention in DMSO from stock plates were added by pin transfer using a Janus Workstation (PerkinElmer, USA). The streptavidin-coated donor beads (25 μg/ml final) were added as with previous solution in a 2×, 10 μL volume. Following this addition, the plates were sealed with foil to block light exposure and to prevent evaporation. The plates were spun down again at 1000 rpm for 1 minute. Next, the plates were incubated in the room with the plate reader (for temperature equilibration) for 1 hour prior to reading the assay. Signal is stable for up to 3 hours after donor bead addition.

ATAD2B = target: T9, ATAD2B (Homo sapiens, UniProt Q9ULI0); assay: BromoScan selectivity panel (Kd); assay type: binding
T9 sequence (Q9ULI0 953-1085 limits assumed): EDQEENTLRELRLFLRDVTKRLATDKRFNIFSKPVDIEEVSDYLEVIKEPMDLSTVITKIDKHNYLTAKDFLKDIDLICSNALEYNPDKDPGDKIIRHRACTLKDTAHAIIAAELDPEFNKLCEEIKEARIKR

FALZ = FALZ (Homo sapiens, UniProt Q12830); assay: BromoScan selectivity panel (Kd); assay type: binding
EP300 = target: T10, EP300 (Homo sapiens, UniProt Q09472); assay: BromoScan selectivity panel (Kd); assay type: binding
T10 sequence (Q09472 1040-1161 limits assumed): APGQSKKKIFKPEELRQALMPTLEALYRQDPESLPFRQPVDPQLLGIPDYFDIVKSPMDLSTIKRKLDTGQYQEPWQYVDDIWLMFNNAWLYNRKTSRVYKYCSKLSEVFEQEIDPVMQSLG

PERM1(2) = target: T11, PERM1(2) (Homo sapiens, UniProt Q86U86); assay: BromoScan selectivity panel (Kd); assay type: binding
T11 construct: PERM1(2)

BRD4(1) = target: T12, BRD4(1) (Homo sapiens, UniProt O60885); assay: BromoScan selectivity panel (Kd); assay type: binding
T12 construct: the bromodomain-containing protein is BRD4(1)

BRD4(2) = target: T13, BRD4(2) (Homo sapiens, UniProt O60885); assay: BromoScan selectivity panel (Kd); assay type: binding
T13 construct: the bromodomain-containing protein is BRD4(2)

BRDT(1) = target: T14, BRDT(1) (Homo sapiens, UniProt Q58F21); assay: BromoScan selectivity panel (Kd); assay type: binding
T14 construct: the bromodomain-containing protein is BRDT(1)

BRDT(2) = BRDT(2) (Homo sapiens, UniProt Q58F21); assay: BromoScan selectivity panel (Kd); assay type: binding
BRD2(2) = target: T15, BRD2(2) (Homo sapiens, UniProt P25440); assay: BromoScan selectivity panel (Kd); assay type: binding
T15 construct: the bromodomain-containing protein is BRD2(2)
T15 sequence (P25440 344-453 limits assumed): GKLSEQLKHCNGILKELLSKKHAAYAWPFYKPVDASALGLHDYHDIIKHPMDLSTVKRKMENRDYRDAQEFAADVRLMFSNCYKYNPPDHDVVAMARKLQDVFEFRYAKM

T11 sequence (Q86U86 177-287 limits assumed): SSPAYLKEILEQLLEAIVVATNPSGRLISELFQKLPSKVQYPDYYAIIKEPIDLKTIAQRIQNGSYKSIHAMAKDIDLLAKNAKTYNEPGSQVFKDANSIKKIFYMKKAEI
T1 sequence (Q15059 306-415 limits assumed): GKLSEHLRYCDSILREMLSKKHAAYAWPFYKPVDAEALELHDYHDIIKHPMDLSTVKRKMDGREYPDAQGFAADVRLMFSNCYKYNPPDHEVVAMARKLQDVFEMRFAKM
T6 sequence (P25440 74-180 limits assumed): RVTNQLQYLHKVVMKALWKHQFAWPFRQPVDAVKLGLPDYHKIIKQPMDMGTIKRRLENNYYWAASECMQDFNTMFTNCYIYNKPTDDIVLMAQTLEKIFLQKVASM
T8 sequence (Q15059 34-140 limits assumed): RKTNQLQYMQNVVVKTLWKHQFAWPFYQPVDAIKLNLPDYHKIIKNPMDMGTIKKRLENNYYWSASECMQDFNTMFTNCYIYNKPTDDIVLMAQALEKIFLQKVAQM
T7 sequence (Q9NSI6 1313-1418 limits assumed): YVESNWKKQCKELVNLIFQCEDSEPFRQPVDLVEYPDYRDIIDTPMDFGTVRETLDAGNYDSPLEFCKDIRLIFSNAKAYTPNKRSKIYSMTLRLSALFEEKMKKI

Cc1noc(C)c1-c1ccc(-c2nc3cnccn3c2NC(C)(C)C)cc1 [UMB32, N-(tert-butyl)-2-(4-(3,5-dimethylisoxazol-4-yl)phenyl)imidazo[1,2-a]pyrazin-3-amine]
Kd (BRD3(2); Table 8, read-out: Kd (nM) BRD3(2)): 38 nM
Kd (BRD3(2); Table 9, read-out: BromoScan Kd, nM BRD3(2)): 38 nM
Kd (TAF1(2); Table 8, read-out: Kd (nM) TAF1(2)): 560 nM
Kd (TAF1(2); Table 9, read-out: BromoScan Kd, nM TAF1(2)): 560 nM
Kd (BRPF3; Table 8, read-out: Kd (nM) BRPF3): ≥ 40000 nM
Kd (BRPF3; Table 9, read-out: BromoScan Kd, nM BRDF3): ≥ 40000 nM
Kd (BAZ2B; Table 8, read-out: Kd (nM) BAZ2B): ≥ 40000 nM
Kd (BAZ2B; Table 9, read-out: BromoScan Kd, nM BAZ2B): ≥ 40000 nM
Kd (TRIM24(PHD Bromo.); Table 8, read-out: Kd (nM) TRIM24(PHD Bromo.)): ≥ 40000 nM
Kd (TRIM24(PHD Bromo.); Table 9, read-out: BromoScan Kd, nM TRIM24(PHD, Bromo.)): ≥ 40000 nM
Kd (BRD2(1); Table 8, read-out: Kd (nM) BRD2(1)): 94 nM
Kd (BRD2(1); Table 9, read-out: BromoScan Kd, nM BRD2(1)): 94 nM
Kd (WDR9(2); Table 8, read-out: Kd (nM) WDR9(2)): ≥ 40000 nM
Kd (WDR9(2); Table 9, read-out: BromoScan Kd, nM WDR9(2)): ≥ 40000 nM
pEC50 ([1]; Homo sapiens): 5.95
EC50 ([1]; Homo sapiens, read-out: 797--EC50 (μM)): 0.724 µM
EC50 ([1]; Homo sapiens, read-out: BRD4 EC50 (μM)): 1.1 µM
cellular activity in the BRD4 dependant cell line ([1]; text b618, b620): shows cellular activity in the BRD4 dependant cell line
Kd (BRD3(1); Table 8, read-out: Kd (nM) BRD3(1)): 35 nM
Kd (BRD3(1); Table 9, read-out: BromoScan Kd, nM BRD3(1)): 35 nM
IC50 (BRD4; BRD4 IC50 (μM), Table 3): 0.26 µM
IC50 (BRD4; IC50 (M), Table 1, in vitro, inhibiting the activity of BRD4): 0.256 µM
inhibition of the activity of BRD4 in vitro (BRD4; text b614, b618): active in inhibiting the activity of BRD4 in vitro
Kd (ATAD2B; Table 8, read-out: Kd (nM) ATAD2B): ≥ 40000 nM
Kd (ATAD2B; Table 9, read-out: BromoScan Kd, nM ATAD2B): ≥ 40000 nM
Kd (FALZ; Table 8, read-out: Kd (nM) FALZ): ≥ 40000 nM
Kd (FALZ; Table 9, read-out: BromoScan Kd, nM FALZ): ≥ 40000 nM
Kd (EP300; Table 8, read-out: Kd (nM) EP300): 4500 nM
Kd (EP300; Table 9, read-out: BromoScan Kd, nM EP300): 4500 nM
Kd (PERM1(2); Table 8, read-out: Kd (nM) PERM1(2)): ≥ 40000 nM
Kd (PERM1(2); Table 9, read-out: BromoScan Kd, nM PERM1(2)): ≥ 40000 nM
Kd (BRD4(1); Table 8, read-out: Kd (nM) BRD4(1)): 80 nM
Kd (BRD4(1); Table 9, read-out: BromoScan Kd, nM BRD4(1)): 80 nM
Kd (BRD4(2); Table 8, read-out: Kd (nM) BRD4(2)): 31 nM
Kd (BRD4(2); Table 9, read-out: BromoScan Kd, nM BRD4(2)): 31 nM
Kd (BRDT(1); Table 8, read-out: Kd (nM) BRDT(1)): 110 nM
Kd (BRDT(1); Table 9, read-out: BromoScan Kd, nM BRDT(1)): 110 nM
Kd (BRDT(2); Table 8, read-out: Kd (nM) BRDT(2)): 75 nM
Kd (BRDT(2); Table 9, read-out: BromoScan Kd, nM BRDT(2)): 75 nM
Kd (BRD2(2); Table 8, read-out: Kd (nM) BRD2(2)): 95 nM
Kd (BRD2(2); Table 9, read-out: BromoScan Kd, nM BRD2(2)): 95 nM
